Results taken from US7579356B2, “Thia-tetraazaacenaphthylene kinase inhibitors” (Janssen Pharmaceutica NV, priority 2005, dated 2009).

Key:
Format in all cases: biochemical
[1] = biological target: T1, EGFR (Homo sapiens, UniProt P00533); test: EGFR Kinase Assay; conditions: for IC50: GST-EGFR, ATP 5 μM; for inhibition at 2 µM: test concentration of 2 μM, compounds without an IC50, read-out: EGFR inhibition in percent
T1 construct: The intracellular portion of EGFR started at nucleotide 2189 (corresponding to amino acid 667) and ended at the termination codon; made in house; host or cells: Sf9 insect cells (baculovirus)
T1 sequence (P00533 669-1210 limits assumed): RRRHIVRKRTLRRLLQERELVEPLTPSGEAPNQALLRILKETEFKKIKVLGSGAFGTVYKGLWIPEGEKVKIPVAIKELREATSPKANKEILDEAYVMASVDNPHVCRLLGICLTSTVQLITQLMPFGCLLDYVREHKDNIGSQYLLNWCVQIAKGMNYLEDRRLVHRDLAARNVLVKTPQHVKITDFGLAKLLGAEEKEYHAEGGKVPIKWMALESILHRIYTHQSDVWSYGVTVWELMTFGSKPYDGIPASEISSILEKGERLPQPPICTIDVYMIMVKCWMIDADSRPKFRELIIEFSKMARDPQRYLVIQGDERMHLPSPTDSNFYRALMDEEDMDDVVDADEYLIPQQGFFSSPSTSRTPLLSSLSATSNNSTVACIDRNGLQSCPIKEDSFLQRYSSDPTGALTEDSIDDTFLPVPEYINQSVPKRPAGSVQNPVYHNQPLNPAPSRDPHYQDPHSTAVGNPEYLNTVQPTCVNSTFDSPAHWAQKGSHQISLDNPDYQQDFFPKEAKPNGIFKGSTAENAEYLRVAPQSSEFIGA
Method in brief: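 Potency came from triplicate 16-point half-log titrations starting at 200 uM, with IC50 fitted from % inhibition against log concentration, or % inhibition at 2 μM otherwise. Reaction: Sf9-made GST–EGFR cytoplasmic region (aa 667 onward), biotin-polyGluTyr, 5 μM ATP with 33P tracer, pH 8.0 Tris/Mg/vanadate/DTT, 30 °C for 1 h; captured on streptavidin Flashplates and counted.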

[2] = biological target: T2, Lyn kinase (human) (Homo sapiens, UniProt P07948); test: Lyn Kinase Assay; conditions: test concentration of 2 μM
T2 construct: purchased Upstate Biotechnology, Lake Placid, N.Y
T2 sequence (P07948 whole entry): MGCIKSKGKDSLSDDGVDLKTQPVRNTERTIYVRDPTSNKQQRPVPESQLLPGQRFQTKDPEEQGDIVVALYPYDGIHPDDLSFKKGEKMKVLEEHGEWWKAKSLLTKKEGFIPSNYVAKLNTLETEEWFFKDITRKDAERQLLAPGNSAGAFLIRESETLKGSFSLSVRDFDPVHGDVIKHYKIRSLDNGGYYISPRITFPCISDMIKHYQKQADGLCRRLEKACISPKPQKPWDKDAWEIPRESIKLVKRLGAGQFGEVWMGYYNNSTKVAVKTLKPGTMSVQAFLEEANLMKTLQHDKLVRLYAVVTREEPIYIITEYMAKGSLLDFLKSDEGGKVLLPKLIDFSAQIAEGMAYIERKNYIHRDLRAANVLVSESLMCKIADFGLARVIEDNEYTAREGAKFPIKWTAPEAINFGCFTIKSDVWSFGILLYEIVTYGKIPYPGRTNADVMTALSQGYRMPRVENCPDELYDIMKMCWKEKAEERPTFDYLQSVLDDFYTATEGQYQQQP
Procedure: A mixture of a 10× kinase buffer (500 mM MOPS at pH 7.5, 1 mM EGTA, 1 mM Sodium Vanadate, 1% β-mercaptoethanol and 100 mM Magnesium Acetate), ATP (5 μM final from a 10 mM stock), polyGluTyr (0.1 mg/mL final from a 1 mg/mL stock), γ-^33P ATP (10 μCl/μL stock) and water (for a total of 20 μL/well) was added to each well of a Streptavidin Flashplate.
Test compound in 100% DMSO (0.5 μL) was added to the appropriate wells. Diluted Lyn kinase (human)(Accession Number EMBL M16038) (Upstate Biotechnology, Lake Placid, N.Y.) (diluted in a buffer consisting of 50 mM Tris at pH 7.5, 0.1 mM EGTA, Sodium Vanadate (0.1 mM), β-mercaptoethanol (0.1%) and 1 mg/mL bovine serum albumin) (2.5 μL) was added to the wells to initiate the reactions.
The reaction plates were incubated at 30° C. for 40 min. The reaction was terminated by the addition of a 3% phosphoric acid solution (5 μL). The reaction product (10 μL) was spotted onto a P30 filtermat and washed for 5 minutes in phosphoric acid (75 mM). The wash sequence was repeated two more times, followed with one final wash in methanol. The plates were then dried, sealed and read on the TopCount scintillation counter after adding 30 μL scintillation fluid.
(§1) The Lyn inhibition values were derived according to the procedure described in Example 164 and are shown as percent in Table 3 at a test concentration of 2 μM. For those compounds with an IC50, the IC50 value in μM is shown in parentheses. For compounds with multiple test values, each value represents a separate assay result.

[3] = biological target: T3, c-Src kinase (human) (Homo sapiens, UniProt P12931); test: c-Src Kinase Assay; conditions: test concentration of 2 μM; multiple values are separate assay results
T3 construct: purchased Upstate Biotechnology, Lake Placid, N.Y
T3 sequence (P12931 whole entry): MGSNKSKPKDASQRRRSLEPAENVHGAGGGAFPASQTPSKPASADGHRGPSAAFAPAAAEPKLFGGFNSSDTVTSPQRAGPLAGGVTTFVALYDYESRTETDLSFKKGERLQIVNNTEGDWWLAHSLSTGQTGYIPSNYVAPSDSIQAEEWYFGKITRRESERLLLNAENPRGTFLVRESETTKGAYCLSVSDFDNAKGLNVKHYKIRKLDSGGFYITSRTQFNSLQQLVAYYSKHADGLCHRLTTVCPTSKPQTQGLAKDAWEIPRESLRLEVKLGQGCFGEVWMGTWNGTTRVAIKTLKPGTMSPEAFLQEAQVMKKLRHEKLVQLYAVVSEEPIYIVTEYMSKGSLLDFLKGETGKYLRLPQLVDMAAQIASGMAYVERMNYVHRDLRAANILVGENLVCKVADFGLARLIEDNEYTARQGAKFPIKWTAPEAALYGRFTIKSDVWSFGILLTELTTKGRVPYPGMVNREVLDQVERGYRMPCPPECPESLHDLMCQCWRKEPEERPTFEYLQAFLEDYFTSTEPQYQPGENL
Procedure: A mixture of a 10× kinase buffer (80 mM MOPS at pH 7.0, 2 mM EDTA and 100 mM Magnesium Chloride), ATP (5 μM final from a 10 mM stock), a Cdc2 peptide KVEKIGEGTYGVVYK (100 μM final from a 2.5 mM stock), γ-^33P ATP (10 μCl/μL stock) and water (for a total of 20 μL/well) was added to each well of a Streptavidin Flashplate.
Test compound in 100% DMSO (0.5 μL) was added to the appropriate wells. Diluted c-Src kinase (human) (Accession Number SWISS-PROT P12931) (Upstate Biotechnology, Lake Placid, N.Y.) (diluted in a buffer consisting of 20 mM MOPS at pH 7.0, 1 mM EDTA, β-mercaptoethanol (0.1%), Brij-35 (0.01%), glycerol (5%), and 1 mg/mL bovine serum albumin) (2.5 μL) was added to the wells to initiate the reactions. The reaction plates were incubated at 30° C. for 40 min. The reaction was terminated by the addition of a 3% phosphoric acid solution (5 μL). The reaction product (10 μL) was spotted onto a P30 filtermat and washed for 5 minutes in phosphoric acid (75 mM). The wash sequence was repeated two more times, followed with one final wash in methanol. The plates were then dried, sealed and read on the TopCount scintillation counter after adding 30 μL scintillation fluid.
as §1, with “c-Src” for “Lyn”, “using” for “according to”, “percent inhibition formula provided” for “procedure described”, “2” for “3”

[4] = biological target: T4, HER-2 (Homo sapiens, UniProt P04626); test: HER-2 Kinase Assay; conditions: for inhibition at 1 µM: test concentration of 1 μM; for IC50: value in parentheses
T4 construct: His6 with thrombin site (N); purchased Proqinase (Freiburg, Germany)
T4 sequence (P04626 679-1255): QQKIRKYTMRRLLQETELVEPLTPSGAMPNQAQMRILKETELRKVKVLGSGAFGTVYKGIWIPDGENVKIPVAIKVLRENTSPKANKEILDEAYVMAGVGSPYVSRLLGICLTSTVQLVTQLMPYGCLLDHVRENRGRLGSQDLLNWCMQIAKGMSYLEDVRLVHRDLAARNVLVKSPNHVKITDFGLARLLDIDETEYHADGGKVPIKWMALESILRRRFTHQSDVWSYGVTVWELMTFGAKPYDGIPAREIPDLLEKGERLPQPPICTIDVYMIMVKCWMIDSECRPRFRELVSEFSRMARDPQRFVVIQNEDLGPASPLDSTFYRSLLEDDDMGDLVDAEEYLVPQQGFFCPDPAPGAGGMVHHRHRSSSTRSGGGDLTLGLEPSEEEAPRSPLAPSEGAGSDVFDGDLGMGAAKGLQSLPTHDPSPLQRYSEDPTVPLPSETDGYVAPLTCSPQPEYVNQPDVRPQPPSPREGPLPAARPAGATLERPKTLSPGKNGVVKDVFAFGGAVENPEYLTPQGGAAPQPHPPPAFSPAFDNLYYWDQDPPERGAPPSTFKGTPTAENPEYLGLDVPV
Method in brief: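 Read-out was scintillation counting of 33P incorporated into biotinylated polyGluTyr captured on streptavidin plates. Reactions ran 1 h at 30 °C with GST-fused HER-2 residues 679–1255, 1 μM ATP, Mn2+ and Mg2+ at pH 7.5; data given as percent inhibition at 1 μM, with IC50 where determined.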

| Structure (SMILES) | IC50 [1] [µM] | inhibition at 2 µM [2] [%] | inhibition at 2 µM [3] [%] | inhibition at 1 µM [4] [%] | IC50 [4] [µM] | inhibition at 2 µM [1] [%] | % Inhibition (Lyn) ([2]; 2 µM) [%] |
| --- | --- | --- | --- | --- | --- | --- | --- |
| COc1ccc(-c2sc3ncnc4c3c2NC(=O)N4c2ccc(F)c(Cl)c2)cc1OC [Cpd 9, 5-(3-chloro-4-fluoro-phenyl)-2-(3,4-dimethoxy-phenyl)-3H,5H-1-thia-3,5,6,8-tetraaza-acenaphthylen-4-one] | 1.03 | -7 | 26 | – | – | – | – |
| O=C(Nc1ccc(CN2CCOCC2)cc1)c1sc2ncnc3c2c1NC(=O)N3c1ccc(F)cc1Cl [Cpd 16, 5-(2-chloro-4-fluoro-phenyl)-4-oxo-4,5-dihydro-3H-1-thia-3,5,6,8-tetraaza-acenaphthylene-2-carboxylic acid (4-morpholin-4-ylmethyl-phenyl)-amide] | 0.223 | 68 | 52 | 54 | 5.44 | – | – |
| COc1cc(NC(=O)c2sc3ncnc4c3c2NC(=O)N4c2cc(OC)c(OC)c(OC)c2Cl)ccc1OCC1CCCCO1 (stereo not drawn) [Cpd 30, 5-(2-chloro-3,4,5-trimethoxy-phenyl)-4-oxo-4,5-dihydro-3H-1-thia-3,5,6,8-tetraaza-acenaphthylene-2-carboxylic acid [3-methoxy-4-(tetrahydro-pyran-2-ylmethoxy)-phenyl]-amide] | 19.2 | -6 | 1 | 19 | – | – | – |
| COc1cc(NC(=O)c2sc3ncnc4c3c2NC(=O)N4c2cc(OC)c(OC)c(OC)c2)ccc1OCC1CCCCO1 (stereo not drawn) [Cpd 31, 5-(3,4,5-trimethoxy-phenyl)-4-oxo-4,5-dihydro-3H-1-thia-3,5,6,8-tetraaza-acenaphthylene-2-carboxylic acid [3-methoxy-4-(tetrahydro-pyran-2-ylmethoxy)-phenyl]-amide] | 42.7 | -7 | 8 | 1 | – | – | – |
| CN1CCCC(COc2ccc(NC(=O)c3sc4ncnc5c4c3NC(=O)N5c3ccc(Cl)cc3Cl)cc2)C1 (stereo not drawn) [Cpd 32, 5-(2,4-dichloro-phenyl)-4-oxo-4,5-dihydro-3H-1-thia-3,5,6,8-tetraaza-acenaphthylene-2-carboxylic acid [4-(1-methyl-piperidin-3-ylmethoxy)-phenyl]-amide] | 0.58 | 38 | 32 | 33 | – | – | – |
| COc1cc(N2C(=O)Nc3c(C(=O)Nc4ccc(CN5CCCCC5)cc4)sc4ncnc2c34)c(Cl)cc1Cl [Cpd 33, 5-(2,4-dichloro-5-methoxy-phenyl)-4-oxo-4,5-dihydro-3H-1-thia-3,5,6,8-tetraaza-acenaphthylene-2-carboxylic acid (4-piperidin-1-ylmethyl-phenyl)-amide] | 1.89 | 36 | 32 | 14 | – | – | – |
| COc1cc(N2C(=O)Nc3c(C(=O)Nc4ccc(OCCN5CCOCC5)c(OC)c4)sc4ncnc2c34)c(Cl)cc1Cl [Cpd 34, 5-(2,4-dichloro-5-methoxy-phenyl)-4-oxo-4,5-dihydro-3H-1-thia-3,5,6,8-tetraaza-acenaphthylene-2-carboxylic acid [3-methoxy-4-(2-morpholin-4-yl-ethoxy)-phenyl]-amide] | 5.37 | 10 | 23 | -14 | – | – | – |
| COc1cc(N2C(=O)Nc3c(C(=O)Nc4ccc(OC)c(OC)c4)sc4ncnc2c34)c(Cl)cc1Cl [Cpd 35, 5-(2,4-dichloro-5-methoxy-phenyl)-4-oxo-4,5-dihydro-3H-1-thia-3,5,6,8-tetraaza-acenaphthylene-2-carboxylic acid (3,4-dimethoxy-phenyl)-amide] | 5.71 | -11 | 7 | -12 | – | – | – |
| COc1ccc(NC(=O)c2sc3ncnc4c3c2NC(=O)N4c2ccc(Br)cc2F)cc1OC [Cpd 37, 5-(4-bromo-2-fluoro-phenyl)-4-oxo-4,5-dihydro-3H-1-thia-3,5,6,8-tetraaza-acenaphthylene-2-carboxylic acild (3,4-dimethoxy-phenyl)-amide] | 0.49 | -13 | 11 | 1 | – | – | – |
| COc1cc(NC(=O)c2sc3ncnc4c3c2NC(=O)N4c2ccc(Br)cc2F)ccc1OCCN1CCOCC1 [Cpd 39, 5-(4-bromo-2-fluoro-phenyl)-4-oxo-4,5-dihydro-3H-1-thia-3,5,6,8-tetraaza-acenaphthylene-2-carboxylic acid [3-methoxy-4-(2-morpholin-4-yl-ethoxy)-phenyl]-amide] | 0.41 | 11 | 16 | 24 | – | – | – |
| O=C(O)c1sc2ncnc3c2c1NC(=O)N3c1ccc(Br)cc1F [Cpd 40, 5-(4-bromo-2-fluoro-phenyl)-4-oxo-4,5-dihydro-3H-1-thia-3,5,6,8-tetraaza-acenaphthylene-2-carboxylic acid] | 7.43 | -5 | 3 | -19 | – | – | – |
| COc1cc(N2C(=O)Nc3c(C(=O)O)sc4ncnc2c34)c(Cl)cc1Cl [Cpd 41, 5-(2,4-dichloro-5-methoxy-phenyl)-4-oxo-4,5-dihydro-3H-1-thia-3,5,6,8-tetraaza-acenaphthylene-2-carboxylic acid] | – | 29 | 18 | -17 | – | 11 | – |
| COc1cc(N2C(=O)Nc3c(C(=O)O)sc4ncnc2c34)cc(OC)c1OC [Cpd 42, 4-oxo-5-(3,4,5-trimethoxy-phenyl)-4,5-dihydro-3H-1-thia-3,5,6,8-tetraaza-acenaphthylene-2-carboxylic acid] | – | 24 | 8 | -36 | – | -3 | – |
| O=C(Nc1ccc(CCN2CCCCC2)cc1)c1sc2ncnc3c2c1NC(=O)N3c1ccc(Oc2ccccc2)c(F)c1 [Cpd 114, 5-(3-fluoro-4-phenoxy-phenyl)-4-oxo-4,5-dihydro-3H-1-thia-3,5,6,8-tetraaza-acenaphthylene-2-carboxylic acid [4-(2-piperidin-1-yl-ethyl)-phenyl]-amide] | 0.025 | 40 | – | 60 | 0.536 | – | 48.5 |
| CC(C)(C)OC(=O)NCCCNC(=O)c1sc2ncnc3c2c1NC(=O)N3c1ccc2c(ccn2Cc2cccc(F)c2)c1 [Cpd 141, [3-({5-[1-(3-fluoro-benzyl)-1H-indol-5-yl]-4-oxo-4,5-dihydro-3H-1-thia-3,5,6,8-tetraaza-acenaphthylene-2-carbonyl}-amino)-propyl]-carbamic acid tert-butyl ester] | – | 37 | 26 | – | ~100 | – | – |
